Source: the NIST ThermoML archive (doi:10.1016/j.jct.2013.10.023)

Test: xn = mol fraction of the nth substance listed
Details: 101 kPa, Liquid; for viscosity: Capillary tube (Ostwald / Ubbelohde) method; for mass density: Vibrating tube method

CC(=O)[O-].CCn1cc[n+](C)c1 [1-ethyl-3-methylimidazolium acetate] + CCOS(=O)(=O)[O-].CCn1cc[n+](C)c1
Details	mass density [kg/m3]	viscosity [mPa·s]
298.15 K, x1 = 0.0993	1226.62	97.2
298.15 K, x1 = 0.2011	1214.23	99.93
298.15 K, x1 = 0.2973	1202.11	101.8
298.15 K, x1 = 0.3917	1189.85	105.2
298.15 K, x1 = 0.5069	1174.26	110.1
298.15 K, x1 = 0.5988	1161.36	114.1
298.15 K, x1 = 0.705	1145.81	120.1
298.15 K, x1 = 0.8012	1131.13	125.8
298.15 K, x1 = 0.9007	1115.5	131
298.15 K, x1 = 1	1099.04	138.4
308.15 K, x1 = 0.0993	1219.9	61.11
308.15 K, x1 = 0.2011	1207.5	61.27
308.15 K, x1 = 0.2973	1195.48	62.35
308.15 K, x1 = 0.3917	1183.26	63.63
308.15 K, x1 = 0.5069	1167.73	65.47
308.15 K, x1 = 0.5988	1154.86	66.99
308.15 K, x1 = 0.705	1139.5	69.07
308.15 K, x1 = 0.8012	1124.87	71.01
308.15 K, x1 = 0.9007	1109.3	73.4
308.15 K, x1 = 1	1092.95	76.1
318.15 K, x1 = 0.0993	1213.21	40.47
318.15 K, x1 = 0.2011	1200.9	41.05
318.15 K, x1 = 0.2973	1188.92	41.59
318.15 K, x1 = 0.3917	1176.76	42.12
318.15 K, x1 = 0.5069	1161.31	41.77
318.15 K, x1 = 0.5988	1148.5	43.3
318.15 K, x1 = 0.705	1133.15	43.93
318.15 K, x1 = 0.8012	1118.65	44.55
318.15 K, x1 = 0.9007	1103.14	45.24
318.15 K, x1 = 1	1086.88	45.9
328.15 K, x1 = 0.0993	1206.59	29.06
328.15 K, x1 = 0.2011	1194.33	29.19
328.15 K, x1 = 0.2973	1182.38	29.32
328.15 K, x1 = 0.3917	1170.26	29.44
328.15 K, x1 = 0.5069	1154.88	29.58
328.15 K, x1 = 0.5988	1142.13	29.69
328.15 K, x1 = 0.705	1126.87	29.81
328.15 K, x1 = 0.8012	1112.55	29.91
328.15 K, x1 = 0.9007	1097.01	30
328.15 K, x1 = 1	1080.86	30.1
338.15 K, x1 = 0.0993	1200.01	20.7
338.15 K, x1 = 0.2011	1187.79	20.78
338.15 K, x1 = 0.2973	1175.91	20.84
338.15 K, x1 = 0.3917	1163.85	20.89
338.15 K, x1 = 0.5069	1148.54	20.92
338.15 K, x1 = 0.5988	1135.86	20.92
338.15 K, x1 = 0.705	1120.68	20.89
338.15 K, x1 = 0.8012	1106.35	20.86
338.15 K, x1 = 0.9007	1090.93	20.84
338.15 K, x1 = 1	1074.86	20.8
348.15 K, x1 = 0.0993	1196.34	15.63
348.15 K, x1 = 0.2011	1184.12	15.58
348.15 K, x1 = 0.2973	1172.27	15.5
348.15 K, x1 = 0.3917	1160.23	15.39
348.15 K, x1 = 0.5069	1144.94	15.24
348.15 K, x1 = 0.5988	1132.29	15.1
348.15 K, x1 = 0.705	1117.12	14.91
348.15 K, x1 = 0.8012	1102.78	14.72
348.15 K, x1 = 0.9007	1087.39	14.51
348.15 K, x1 = 1	1071.37	14.28
358.15 K, x1 = 0.0993	1187	12.57
358.15 K, x1 = 0.2011	1174.89	12.8
358.15 K, x1 = 0.2973	1163.13	12.95
358.15 K, x1 = 0.3917	1151.18	12.93
358.15 K, x1 = 0.5069	1136.03	12.9
358.15 K, x1 = 0.5988	1123.47	12.81
358.15 K, x1 = 0.705	1108.41	12.7
358.15 K, x1 = 0.8012	1094.15	12.47
358.15 K, x1 = 0.9007	1078.94	12.17
358.15 K, x1 = 1	1063.03	11.53
